Experimental data reported in patent US20060276468A1, “Wood preservative formulations comprising Imazalil” (priority 2005, published 2006).

Tested on: decay organisms
Test: soil contact veneer exposure test: dip-treated Scots pine sapwood veneers half buried in damp compost, pulled by hand weekly until failure
Details: for average time for failure to occur (half life), combination with imazalil sulfate / estimated expected average time for failure, combination with imazalil sulfate / average time for failure to occur (half life): Example 1; for average time for failure to occur (half life), combination with imazalil sulfate: 0.3% dichlorophen, 0.1% triclosan, 0.4% fenarimol or 0.4% PHMB, each plus 0.2% imazalil sulfate; for estimated expected average time for failure, combination with imazalil sulfate: midway between the two single biocides; for average time for failure to occur (half life): biocide alone: 0.6% dichlorophen, 0.2% triclosan, 0.8% fenarimol, 0.8% PHMB, 0.4% imazalil sulfate, 6 veneers; for synergy of the combination with imazalil sulfate: actual versus expected average time to failure; for estimated expected half life for 1% fungicide plus 1% Imazalil sulfate / Half life for 1% fungicide plus 1% Imazalil sulfate / Half life for fungicide at 2% active ingredient (ai): Example 3; for Half life for 1% fungicide plus 1% Imazalil sulfate / Half life for fungicide at 2% active ingredient (ai): solutions in IMS (alcohol); for half life, Low level with 0.8% Imazalil sulfate: 0.8% fungicide plus 0.8% imazalil sulfate, IMS; for half life, High level (1.6%) / half life, Low level (0.8%): solutions in IMS
Description: The present invention also provides a simple exposure test for evaluating the wood preserving abilities of candidate ingredients or compositions. This exposure test is based on the premise that small dimension timber test specimens tend to fail more quickly than larger ones in soil contact situations.
It is preferable that the thickness of the veneers be greater than 0.1 mm, as veneers of lesser thickness can often be pulled apart by hand without undergoing exposure to decay organisms. Veneers which are thicker than 0.4 may take an excessive amount of time to fail the exposure test. In one embodiment, the thickness of the veneers is about 0.2 mm and the wood is the sapwood of the Scots pine (Pinus sylvestris). Other woods and thicknesses can be used. […] An example of convenient width and length dimensions are 15×50 mm. However, width and length are not critical provided they are kept consistent within a test, although very large or small length or width dimensions may be difficult to handle.
Accordingly, the test of the present invention comprises testing the integrity of a veneer after exposure to a decay-inducing environment. In one embodiment, this environment is damp compost in which decay organisms are present and water is present at just above the water holding capacity of the compost. If desired, other media can be used, and the test can be conducted at water contents which are below, at, or above the water-holding capacity of the media.
In general, the integrity of the veneer is inversely related to the length of exposure to the decay promoting environment. The integrity of the veneer can be tested by applying a force to the veneer and noting whether or not the veneer breaks. Thus, if wood preservative agents are applied to the veneers, these veneers would be expected to withstand longer exposure to the environment without breaking compared to control veneers without breaking.
The force applied to the veneers is preferably a force which pulls the two ends in opposite directions. The force can be applied by the use of an instrument or manually. If there is significant decay the veneer will break, generally near the junction between the portion submerged in the decay accelerating medium and the portion exposed to air. If the force is applied manually, it is preferable that the same individual conduct the test at the various exposure time points.
The veneers were cut such that both late wood and early wood were present in each veneer. The following biocides were tested: imazalil sulfate, dichlorophen, fenarimol, triclosan, and PHMB. To allow the mixing together of the five selected biocides in any combination the biocides were formulated such that they could be mixed together (all the percentages are mass/mass):
Test solutions were prepared and sets of veneers were dip treated such that there were 6 replicate veneers for each treatment under investigation. Additionally six veneers were dip treated in deionised water to act as water controls. […] Plastic containers (approximately 350×220 mm by at least 60 mm high) were part filled with John Innes Number 2 potting compost at a little above its water holding capacity. The veneers for this particular test were placed in six rows within a container such that approximately half the veneer was below the compost and half above. The veneers were placed in the compost such than those given a particular treatment were distributed throughout the container and were not grouped together. The containers, compost and veneers were weighed then incubated at about 30° C. and near 100% relative humidity in an incubator. Each week during the test the assembly was reweighed and deionised water added to bring it back to its original mass. After 3 weeks each veneer was examined in turn. It was held between the fore finger and thumb at each end and pulled to see if it could be broken. If it could be pulled apart a failure was recorded.

Compound | average time for failure to occur (half life), combination with imazalil sulfate | estimated expected average time for failure, combination with imazalil sulfate (additive expectation) | average time for failure to occur (half life) | synergy of the combination with imazalil sulfate | estimated expected half life for 1% fungicide plus 1% Imazalil sulfate (additive expectation) | Half life for 1% fungicide plus 1% Imazalil sulfate | Half life for fungicide at 2% active ingredient (ai) | other results
Oc1cc(Cl)ccc1Oc1ccc(Cl)cc1Cl [Trichlosan, 5-chloro-2-(2,4-dichlorophenoxy)phenol] | 5.50 weeks | (4.75) weeks | ~4.33 weeks | positive synergy |  |  |  | 
CCCCCCCCCCCCCN1CC(C)OC(C)C1 (centres unmarked) [Tridemorph, 4-alkyl-2,6-dimethylmorpholine] |  |  |  |  | 5.42 weeks | 6.33 weeks | 4.83 weeks | 
N,N-didecyl-N-methyl-poly(oxethyl)ammonium propionate [Bardap 26] |  |  |  | approximates that predicted in the case of no synergy |  |  |  | half life, Low level with 0.8% Imazalil sulfate: 4.83 weeks; average time for failure to occur, quat with Imazalil sulfate (Example 2, 0.18% active quat plus 0.30% imazalil sulfate (Table 3; text b187 says 0.2%)): 5.33 weeks; average time for failure to occur, Quat Only (Example 2, 0.36% active quat in deionised water): 5.00 weeks; estimated expected average time for failure, quat with Imazalil sulfate (Example 2, additive expectation): 5.34 weeks; expected half life, Low level with 0.8% Imazalil sulfate (additive expectation): {5.50 weeks}; half life, High level (1.6%): 5.17 weeks; half life, Low level (0.8%): 4.67 weeks
Poly(hexamethylenebiguanide)hydrochloride [PHMB] | 5.17 weeks | (5.00) weeks | 4.83 weeks | positive synergy |  |  |  | 
alkyl dimethyl benzyl ammonium chloride [BAC] |  |  |  |  | 5.59 weeks | 6.17 weeks | 5.17 weeks | half life, Low level with 0.8% Imazalil sulfate (unnumbered table): 6.00 weeks; expected half life, Low level with 0.8% Imazalil sulfate (unnumbered table, additive expectation): {592 weeks}; half life, High level (1.6%) (unnumbered table): 4.83 weeks; half life, Low level (0.8%) (unnumbered table): 4.67 weeks
copper naphthenate [Copper (as copper naphthenate)] |  |  |  |  |  |  |  | estimated expected half life for 1% fungicide plus 1% Imazalil (Example 6, additive expectation): {10.50 weeks}; Half life for fungicide at 2% ai (Example 6, solutions in xylene): 14.83 weeks; Half life for 1% fungicide plus 1% Imazalil (Example 6, solutions in xylene, 1% copper): 11.67 weeks
